These molecules were tested against Recombinant human JAK1 catalytic domain (Homo sapiens (Human), UniProt P23458) (assay: JAK1 inhibition assay). Settings: semi-quantitative score.
Format: biochemical
Protocol: (§1) Plates were washed 6 times with 300 μL per well of a 75 mM phosphoric acid solution and the bottom of the plates was sealed. 40 μL/well of Microscint-20 was added, the top of the plates was sealed and readout was performed using the Topcount (Perkin Elmer). Kinase activity was calculated by subtracting counts per minute (cpm) obtained in the presence of a positive control inhibitor (10 μM staurosporine) from cpm obtained in the presence of vehicle. The ability of a test compound to inhibit this activity was determined as: Percentage inhibition=((cpm determined for sample with test compound present−cpm determined for sample with positive control inhibitor) divided by (cpm determined in the presence of vehicle−cpm determined for sample with positive control inhibitor))*100%.
Dose dilution series were prepared for the compounds enabling the testing of dose-response effects in the JAK1 assay and the calculation of the IC50 for each compound.

Sequence of Recombinant human JAK1 catalytic domain (P23458 850-1154): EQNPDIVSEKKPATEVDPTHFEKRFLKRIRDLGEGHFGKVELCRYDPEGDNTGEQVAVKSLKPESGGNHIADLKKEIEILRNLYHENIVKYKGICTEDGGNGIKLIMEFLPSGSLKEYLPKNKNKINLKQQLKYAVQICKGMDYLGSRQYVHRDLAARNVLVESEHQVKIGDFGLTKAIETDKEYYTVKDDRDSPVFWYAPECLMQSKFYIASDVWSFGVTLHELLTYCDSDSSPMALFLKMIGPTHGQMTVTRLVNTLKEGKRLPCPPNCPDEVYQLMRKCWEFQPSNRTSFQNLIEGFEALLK

| SMILES | IC50 [nM] |
| --- | --- |
| O=C(Nc1nc2cccc(-c3ccc(C(=O)N(Cc4ccc(F)cc4)CC4CCCO4)cc3)n2n1)C1CC1 (centres unmarked) [Compound 153, 4-(2-(cyclopropanecarboxamido)-[1,2,4]triazolo[1,5-a]pyridin-5-yl)-N-(4-fluorobenzyl)-N-((tetrahydrofuran-2-yl)methyl)benzamide] | 101 to 500 |
| Cc1nccn1CCC1CCN(C(=N)c2ccc(-c3cccc4nc(NC(=O)C5CC5)nn34)cc2)CC1 [Compound 154, N-(5-(4-(imino(4-(2-(2-methyl-1H-imidazol-1-yl)ethyl)piperidin-1-yl)methyl)phenyl)-[1,2,4]triazolo[1,5-a]pyridin-2-yI)cyclopropanecarboxamide] | 101 to 500 |
| CN(Cc1ccc(-c2ccccn2)cc1)Cc1ccc(-c2cccc3nc(NC(=O)C4CC4)nn23)cc1 [Compound 159, N-(5-(4-((methyl(4-(pyridin-2-yl)benzyl)amino)methyl)phenyl)-[1,2,4]triazolo[1,5-a]pyridin-2-yl)cyclopropanecarboxamide] | 101 to 500 |
| Cc1cc(CN(C)Cc2ccc(-c3cccc4nc(NC(=O)C5CC5)nn34)cc2)nn1C [Compound 160, N-(5-(4-((((1,5-dimethyl-1H-pyrazol-3-yl)methyl)(methyl)amino)methyl)phenyl)-[1,2,4]triazolo[1,5-a]pyridin-2-yl)cyclopropanecarboxamide] | 101 to 500 |
| CN(Cc1ccc(-c2cncnc2)cc1)Cc1ccc(-c2cccc3nc(NC(=O)C4CC4)nn23)cc1 [Compound 161, N-(5-(4-((methyl(4-(pyrimidin-5-yl)benzyl)amino)methyl)phenyl)-[1,2,4]triazolo[1,5-a]pyridin-2-yl)cyclopropanecarboxamide] | 501 to 1000 |
| O=C(Nc1nc2cccc(-c3ccc(OCc4ccc(N5CCOCC5)nc4)cc3)n2n1)C1CC1 [Compound 165] | 101 to 500 |
| CN1CCN(c2ccc(COc3ccc(-c4cccc5nc(NC(=O)C6CC6)nn45)cc3)cn2)CC1 [Compound 167, N-(5-(4-((6-(4-methylpiperazin-1-yl)pyridin-3-yl)methoxy)phenyl)-[1,2,4]triazolo[1,5-a]pyridin-2-yl)cyclopropanecarboxamide] | 101 to 500 |
| N#CCN(CCc1ccccc1)C(=O)c1ccc(-c2cccc3nc(NC(=O)C4CC4)nn23)cc1 [Compound 181, N-(cyanomethyl)-4-(2-(cyclopropanecarboxamido)-[1,2,4]triazolo[1,5-a]pyridin-5-yl)-N-phenethylbenzamide] | 101 to 500 |
| O=C(Nc1nc2cccc(-c3cn(Cc4ccc(C(F)(F)F)nc4)nn3)n2n1)C1CC1 [Compound 188] | > 1000 |
| O=C(Nc1nc2cccc(-c3cn(Cc4ccccn4)nn3)n2n1)C1CC1 [Compound 193] | > 1000 |
| CC(=O)NC1CCN(C(=O)Cc2ccc(-c3cccc4nc(NC(=O)C5CC5)nn34)cc2)CC1 [Compound 323, Cyclopropanecarboxylic acid (5-{4-[2-(4-acetylamino-piperidin-1-yl)-2-oxo-ethyl]-phenyl}-[1,2,4]triazolo[1,5-a]pyridin-2-yl)-amide] | 501 to 1000 |

Results, then the molecule that gave them:

| IC50 [nM] | SMILES |
| --- | --- |
| > 1000 | CN(CCc1ccccn1)Cc1ccc(-c2cccc3nc(NC(=O)C4CC4)nn23)cc1 [Compound 155, N-(5-(4-((methyl(2-(pyridin-2-yl)ethyl)amino)methyl)phenyl)-[1,2,4]triazolo[1,5-a]pyridin-2-yl)cyclopropanecarboxamide] |
| 101 to 500 | O=C(Nc1nc2cccc(-c3ccc(OCc4nnn[nH]4)cc3)n2n1)C1CC1 [Compound 158] |
| > 1000 | CN(Cc1cccnc1)c1ccc(-c2cccc3nc(NC(=O)C4CC4)nn23)cc1 [Compound 162, N-(5-(4-(methyl(pyridin-3-ylmethyl)amino)phenyl)-[1,2,4]triazolo[1,5-a]pyridin-2-yl)cyclopropanecarboxamide] |
| 501 to 1000 | O=C(Nc1nc2cccc(-c3ccc(NCc4cccnc4)nc3)n2n1)C1CC1 [Compound 170, N-(5-(6-(pyridin-3-ylmethylamino)pyridin-3-yl)-[1,2,4]triazolo[1,5-a]pyridin-2-yl)cyclopropanecarboxamide] |
| 101 to 500 | O=C(Nc1nc2cccc(-c3ccc(NCc4ccccn4)nc3)n2n1)C1CC1 [Compound 171, N-(5-(6-(pyridin-2-ylmethylamino)pyridin-3-yl)-[1,2,4]triazolo[1,5-a]pyridin-2-yl)cyclopropanecarboxamide] |
| 501 to 1000 | O=C(Nc1nc2cccc(-c3ccc(NCCc4cccnc4)nc3)n2n1)C1CC1 [Compound 172, N-(5-(6-(2-(pyridin-3-yl)ethylamino)pyridin-3-yl)-[1,2,4]triazolo[1,5-a]pyridin-2-yl)cyclopropanecarboxamide] |
| > 1000 | Cc1cc(CNc2ccc(-c3cccc4nc(NC(=O)C5CC5)nn34)cn2)nn1C [Compound 173, N-(5-(6-((1,5-dimethyl-1H-pyrazol-3-yl)methylamino)pyridin-3-yl)-[1,2,4]triazolo[1,5-a]pyridin-2-yl)cyclopropanecarboxamide] |
| 101 to 500 | O=C(Nc1nc2cccc(-c3ccc(NS(=O)(=O)c4ccccc4)nc3)n2n1)C1CC1 [Compound 180, N-(5-(6-(phenylsulfonamido)pyridin-3-yl)-[1,2,4]triazolo[1,5-a]pyridin-2-yl)cyclopropanecarboxamide] |
| > 1000 | O=C(Nc1nc2cccc(-c3ccc(NS(=O)(=O)Cc4ccccc4)nc3)n2n1)C1CC1 [Compound 184, N-(5-(6-(phenylmethylsulfonamido)pyridin-3-yl)-[1,2,4]triazolo[1,5-a]pyridin-2-yl)cyclopropanecarboxamide] |
| < 100 | O=C(Nc1nc2cccc(-c3cnn(Cc4cccnc4)c3)n2n1)C1CC1 [Compound 185, Cyclopropanecarboxylic Acid [5-(1-pyridin-3-ylmethyl-1H-pyrazol-4-yl)-[1,2,4]triazolo[1,5-a]pyridin-2-yl]-amide] |
| 501 to 1000 | O=C(Nc1nc2cccc(-c3cn(Cc4ccccc4)nn3)n2n1)C1CC1 [Compound 187, N-(5-(1-benzyl-1H-1,2,3-triazol-4-yl)-[1,2,4]triazolo[1,5-a]pyridin-2-yl)cyclopropanecarboxamide] |
| > 1000 | O=C(Nc1nc2cccc(-c3ccc(NS(=O)(=O)C4CC4)nc3)n2n1)C1CC1 [Compound 191, N-(5-(6-(cyclopropanesulfonamido)pyridin-3-yl)-[1,2,4]triazolo[1,5-a]pyridin-2-yl)cyclopropanecarboxamide] |
| 101 to 500 | O=C(Nc1nc2cccc(-c3ccc(S(=O)(=O)Cc4ccccn4)cc3)n2n1)C1CC1 [Compound 194, N-(5-(4-(pyridin-2-ylmethylsulfonyl)phenyl)-[1,2,4]triazolo[1,5-a]pyridin-2-yl)cyclopropanecarboxamide] |
| 101 to 500 | O=C(Nc1nc2cccc(-c3ccc(S(=O)(=O)Cc4cccnc4)cc3)n2n1)C1CC1 [Compound 195, N-(5-(4-(pyridin-3-ylmethylsulfonyl)phenyl)-[1,2,4]triazolo[1,5-a]pyridin-2-yl)cyclopropanecarboxamide] |

Each molecule was assayed against Recombinant human JAK2 catalytic domain (Homo sapiens (Human), UniProt O60674) (assay: JAK2 inhibition assay). Settings: semi-quantitative score.
Sequence of Recombinant human JAK2 catalytic domain (O60674 808-1132): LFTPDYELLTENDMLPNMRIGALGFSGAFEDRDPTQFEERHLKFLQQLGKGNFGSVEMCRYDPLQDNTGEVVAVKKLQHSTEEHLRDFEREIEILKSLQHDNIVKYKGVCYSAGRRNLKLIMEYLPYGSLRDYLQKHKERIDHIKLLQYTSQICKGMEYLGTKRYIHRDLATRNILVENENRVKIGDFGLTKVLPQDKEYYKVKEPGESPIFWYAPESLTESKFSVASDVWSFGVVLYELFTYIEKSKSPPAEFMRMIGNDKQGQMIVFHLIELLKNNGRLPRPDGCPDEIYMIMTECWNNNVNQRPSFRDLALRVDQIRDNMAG
Format: biochemical
Protocol: as §1, with “After 90 min at 30° C., reactions were stopped by adding of 25 μL/well of 150 mM phosphoric acid. […] Plates” for “Plates”
Dose dilution series were prepared for the compounds enabling the testing of dose-response effects in the JAK2 assay and the calculation of the IC50 for each compound.

| SMILES | IC50 [nM] |
| --- | --- |
| CCN1C[C@H]2C[C@@H]1CN2Cc1ccc(-c2cccc3nc(NC(=O)C4CC4)nn23)cc1 [Compound 253, Cyclopropanecarboxylic acid {5-[4-((1R,4R)-5-ethyl-2,5-diaza-bicyclo[2.2.1]hept-2-ylmethyl)-phenyl]-[1,2,4]triazolo[1,5-a]pyridin-2-yl}-amide] | 501 to 1000 |
| O=C(Nc1nc2cccc(-c3ccc(CN4CCOCC4=O)cc3)n2n1)C1CC1 [Compound 254, Cyclopropanecarboxylic Acid {5-[4-(3-oxo-morpholin-4-ylmethyl)-phenyl]-[1,2,4]triazolo[1,5-a]pyridin-2-yl}-amide] | 501 to 1000 |
| O=C(Nc1nc2cccc(-c3ccc(CN4CCCC4)cc3)n2n1)C1CC1 [Compound 260, Cyclopropanecarboxylic acid [5-(4-pyrrolidin-1-ylmethyl-phenyl)-[1,2,4]triazolo[1,5-a]pyridin-2-yl]-amide] | 101 to 500 |

Continued, values first:

| IC50 [nM] | SMILES |
| --- | --- |
| 101 to 500 | NC(=O)c1cccc(OCc2ccc(-c3cccc4nc(NC(=O)C5CC5)nn34)cc2)c1 [Compound 251, 3-{4-[2-(Cyclopropanecarbonyl-amino)-[1,2,4]triazolo[1,5-a]pyridin-5-yl]-benzyloxy}-benzamide] |
| 501 to 1000 | COc1ccc(C(N)=O)cc1NCc1ccc(-c2cccc3nc(NC(=O)C4CC4)nn23)cc1 [Compound 255, 3-{4-[2-(Cyclopropanecarbonyl-amino)-[1,2,4]triazolo[1,5-a]pyridin-5-yl]-benzylamino}-4-methoxy-benzamide] |
| 101 to 500 | Cc1ccc(NCc2ccc(-c3cccc4nc(NC(=O)C5CC5)nn34)cc2)c(F)n1 [Compound 256, Cyclopropanecarboxylic acid (5-{4-[(2-fluoro-6-methyl-pyridin-3-ylamino)-methyl]-phenyl}-[1,2,4]triazolo[1,5-a]pyridin-2-yl)-amide] |
| < 100 | N#Cc1ccc(NCc2ccc(-c3cccc4nc(NC(=O)C5CC5)nn34)cc2)c(F)c1 [Compound 258, Cyclopropanecarboxylic acid (5-{4-[(4-cyano-2-fluoro-phenylamino)-methyl]-phenyl}-[1,2,4]triazolo[1,5-a]pyridin-2-yl)-amide] |

Reference: patent US10206907B2, “Compounds useful for the treatment of degenerative and inflammatory diseases” (GALAPAGOS NV, priority 2008, dated 2019)
